Test results: the NIST ThermoML archive (doi:10.1016/j.jct.2009.03.009)

Tests used:
[1] = xn = mol fraction of the nth substance listed; conditions: 313.15 K, 101 kPa, Liquid; for speed of sound: Sing-around technique in a fixed-path interferometer; for mass density: Vibrating tube method
[2] = refractive index (Na D-line) (dimensionless); xn = mol fraction of the nth substance listed; conditions: 313.15 K, 101 kPa, Liquid, Standard Abbe refractometry

CCc1ccccc1 [ethylbenzene] + CCCCCCCC
Conditions	mass density, [1] [kg/m3]	refractive index, [2]	speed of sound, [1] [m/s]
x2 = 0	849.2	1.48426	1256.9
x2 = 0.0536	837.6	1.47786	1244.1
x2 = 0.1028	827.4	1.47159	1232.9
x2 = 0.2037	807.4	1.45954	1212.1
x2 = 0.3032	788.7	1.4483	1193.8
x2 = 0.4015	771.4	1.43795	1177.7
x2 = 0.5013	755	1.42817	1163.3
x2 = 0.6039	739.2	1.41883	1150.1
x2 = 0.701	725.1	1.41043	1138.8
x2 = 0.7996	711.6	1.40254	1128.3
x2 = 0.9012	698.6	1.39489	1119.3
x2 = 0.9515	692.3	1.39112	1115

CCc1ccccc1 [ethylbenzene] + CCCCCCCCC
x2 = 0
Conditions	mass density [kg/m3]	refractive index	speed of sound [m/s]
[1]	849.2	–	1256.9
[2]	–	1.48426	–

CCCCCCC [heptane] + CCc1ccccc1
x1 = 1
Conditions	mass density [kg/m3]	refractive index	speed of sound [m/s]
[1]	666.6	–	1066.5
[2]	–	1.37737	–

CCCCCCC [heptane] + Cc1ccccc1
x1 = 1
Conditions	mass density [kg/m3]	refractive index	speed of sound [m/s]
[1]	666.6	–	1066.5
[2]	–	1.37737	–

CCCCCCC [heptane] + c1ccccc1
x1 = 1
Conditions	mass density [kg/m3]	refractive index	speed of sound [m/s]
[1]	666.6	–	1066.5
[2]	–	1.37737	–

CCCCCC [hexane] + CCc1ccccc1
x1 = 1
Conditions	mass density [kg/m3]	refractive index	speed of sound [m/s]
[1]	641.4	–	1010.3
[2]	–	1.36411	–

CCCCCC [hexane] + Cc1ccccc1
Conditions	mass density, [1] [kg/m3]	refractive index, [2]	speed of sound, [1] [m/s]
x1 = 0.1032	822.9	1.47028	1208.5
x1 = 0.198	800.5	1.4571	1180.8
x1 = 0.2997	777.5	1.44367	1153.5
x1 = 0.4027	755.1	1.43045	1127.5
x1 = 0.5005	734.6	1.41844	1104.6
x1 = 0.5998	714.7	1.40685	1083.1
x1 = 0.6987	695.5	1.3956	1063.3
x1 = 0.7984	677	1.38476	1044.5
x1 = 0.9042	658.1	1.37387	1026.3
x1 = 1	641.4	1.36411	1010.3

CCCCCC [hexane] + c1ccccc1
x1 = 1
Conditions	mass density [kg/m3]	refractive index	speed of sound [m/s]
[1]	641.4	–	1010.3
[2]	–	1.36411	–

CCCCCCCCC [nonane] + CCc1ccccc1
Conditions	mass density, [1] [kg/m3]	refractive index, [2]	speed of sound, [1] [m/s]
x1 = 0.0527	837.7	1.47759	1245.4
x1 = 0.1043	827.1	1.47111	1234.9
x1 = 0.2032	808.1	1.45968	1217.6
x1 = 0.3009	791	1.44884	1203.2
x1 = 0.4018	774.9	1.43899	1190.7
x1 = 0.5009	760.3	1.43055	1180.1
x1 = 0.6003	746.9	1.42241	1171.2
x1 = 0.7012	734.4	1.41482	1163.5
x1 = 0.8044	722.4	1.40792	1156.7
x1 = 0.9026	712	1.40178	1151.1
x1 = 0.9519	707	1.39883	1148.8
x1 = 1	702.2	1.39609	1146.4

CCCCCCCCC [nonane] + Cc1ccccc1
Conditions	mass density, [1] [kg/m3]	refractive index, [2]	speed of sound, [1] [m/s]
x1 = 0.1045	823.2	1.4692	1217.6
x1 = 0.2019	802.9	1.45691	1200.3
x1 = 0.3002	785	1.44571	1187
x1 = 0.4021	768.7	1.43571	1176
x1 = 0.502	754.5	1.42674	1167.7
x1 = 0.601	741.9	1.41934	1161.1
x1 = 0.696	731	1.41289	1156.2
x1 = 0.8032	719.9	1.40639	1151.8
x1 = 0.9022	710.6	1.40097	1148.9
x1 = 0.9501	706.4	1.3985	1147.7
x1 = 1	702.2	1.39609	1146.4

CCCCCCCCC [nonane] + c1ccccc1
Conditions	mass density, [1] [kg/m3]	refractive index, [2]	speed of sound, [1] [m/s]
x1 = 0.0535	839.7	1.47693	1212.1
x1 = 0.1025	825.4	1.46801	1199
x1 = 0.2013	800.8	1.45327	1179.5
x1 = 0.3006	780.6	1.44079	1166.1
x1 = 0.3997	763.8	1.43104	1157.2
x1 = 0.5	749.5	1.42229	1151.4
x1 = 0.5992	737.3	1.41549	1147.7
x1 = 0.7052	726.2	1.40945	1145.9
x1 = 0.8034	717.2	1.40436	1145.2
x1 = 0.9018	709.3	1.3999	1145.6
x1 = 0.9499	705.7	1.39796	1145.9
x1 = 1	702.2	1.39609	1146.4

CCCCCCCC [octane] + CCc1ccccc1
x1 = 1
Conditions	mass density [kg/m3]	refractive index	speed of sound [m/s]
[1]	686.3	–	1110.6
[2]	–	1.38769	–

CCCCCCCC [octane] + Cc1ccccc1
Conditions	mass density, [1] [kg/m3]	refractive index, [2]	speed of sound, [1] [m/s]
x1 = 0.0542	834.6	1.47708	1226.2
x1 = 0.1022	823.4	1.46982	1214.8
x1 = 0.2014	802	1.45667	1194.1
x1 = 0.3037	782	1.44463	1176.2
x1 = 0.3965	765.5	1.43362	1162.3
x1 = 0.4983	749.1	1.42473	1149.7
x1 = 0.5986	734.3	1.41567	1139.1
x1 = 0.7016	720.5	1.4075	1130
x1 = 0.8007	708.4	1.40046	1122.5
x1 = 0.902	696.6	1.39376	1116.1
x1 = 0.9493	691.6	1.39079	1113.1
x1 = 1	686.3	1.38769	1110.6

CCCCCCCC [octane] + c1ccccc1
Conditions	mass density, [1] [kg/m3]	refractive index, [2]	speed of sound, [1] [m/s]
x1 = 0.0541	839.6	1.4762	1210.5
x1 = 0.1014	825.5	1.46817	1196.3
x1 = 0.202	799.3	1.45259	1172.2
x1 = 0.3022	777.2	1.4384	1154.3
x1 = 0.404	758.4	1.42757	1140.9
x1 = 0.5023	742.2	1.41799	1131
x1 = 0.6011	728.3	1.41072	1123.7
x1 = 0.7087	714.9	1.4035	1118
x1 = 0.8051	704.4	1.3977	1114.4
x1 = 0.9015	695	1.39253	1112.1
x1 = 0.9514	690.5	1.39004	1111.2
x1 = 1	686.3	1.38769	1110.6

Cc1ccccc1 [toluene] + CCCCCC
x2 = 0
Conditions	mass density [kg/m3]	refractive index	speed of sound [m/s]
[1]	848	–	1240.7
[2]	–	1.48464	–

Cc1ccccc1 [toluene] + CCCCCCC
Conditions	mass density, [1] [kg/m3]	refractive index, [2]	speed of sound, [1] [m/s]
x2 = 0	848	1.48464	1240.7
x2 = 0.0496	835.7	1.47712	1225.2
x2 = 0.1037	822.8	1.46965	1211.4
x2 = 0.204	800.2	1.45586	1185.7
x2 = 0.406	759.4	1.43176	1144.8
x2 = 0.5045	741.5	1.42117	1127.8
x2 = 0.6016	724.9	1.41138	1113.1
x2 = 0.7011	709	1.40201	1099.4
x2 = 0.8029	693.7	1.39298	1087
x2 = 0.9019	679.7	1.38489	1075.9
x2 = 0.9517	673	1.38102	1071.2

Cc1ccccc1 [toluene] + CCCCCCCC
x2 = 0
Conditions	mass density [kg/m3]	refractive index	speed of sound [m/s]
[1]	848	–	1240.7
[2]	–	1.48509	–

Cc1ccccc1 [toluene] + CCCCCCCCC
x2 = 0
Conditions	mass density [kg/m3]	refractive index	speed of sound [m/s]
[1]	848	–	1240.7
[2]	–	1.48464	–
